Earlier results in US20140050728A1, “METHODS AND COMPOSITIONS FOR INHIBITING CYCLOPHILIN D FOR THE TREATMENT AND PREVENTION OF OBESITY AND KIDNEY INDICATIONS” (BOARD OF REGENTS OF THE UNIVERSITY OF NEBRASKA, priority 2011, published 2014).

Conditions: for weight loss in clinical trials: none of the trials achieved the NIH effectiveness threshold

| SMILES | weight loss in clinical trials | cardiovascular risk associated with use (banned in Europe, cautioned by U.S. FDA) |
| --- | --- | --- |
| CCCCCCCCCCC[C@@H](C[C@@H]1OC(=O)[C@H]1CCCCCC)OC(=O)[C@H](CC(C)C)NC=O [orlistat] | modest weight loss |  |
| CC(C)CC(N(C)C)C1(c2ccc(Cl)cc2)CCC1 (stereo not drawn) [sibutramine] | modest weight loss | increased cardiovascular risk |
